Assays:
[1] = calcium binding constant; cited from earlier work
[2] = octanol/water; cited from earlier work
[3] = In vitro calcium chelation screening of weak acids (octanol/water, ICP-OES); assay type: physicochemical; details: for % Calcium in Water Phase: 3% hydroxy acid in water, pH approximately 3, 1000 ppm CaCO3 in octanol, vortexed 2 minutes, 2 hours
Method: A high throughput in-vitro screening method is developed to help identify lead acids that could function as calcium chelators. The intent of the method is to mimic the lipid matrix of the scalp and to quantify the amount of calcium that could be extracted from that matrix. […] Equal parts of the lipid and water phases are added to a conical vial and vortexed for 2 minutes. The vials are left to sit for 2 hours and then the lower water phase is extracted from the concial vial and submitted for Calcium analysis via ICP-OES. […] [formula]

| Compound | logK_1 [1] | logK_3 [1] | LogP [2] | % Calcium in Water Phase [3] | calcium chelation ability ([3]; among hydroxy acids screened) |
| --- | --- | --- | --- | --- | --- |
| O=C(O)CC(O)(CC(=O)O)C(=O)O [Citric Acid] | 1.100 | 4.680 |  |  |  |
| O=C(O)[C@H](O)[C@@H](O)[C@H](O)[C@H](O)CO [Gluconic Acid] | 1.880 |  | −1.870 |  |  |
| O=C(O)CO [Glycolic Acid] | 1.590 |  | −1.050 |  |  |
| CC(O)C(=O)O (stereo not drawn) [Lactic Acid] | 1.450 |  |  | 78% |  |
| O=C(O)c1ccccc1O [Salicylic Acid] | 1.100 |  |  | 29% | lower calcium chelation ability |
| O=C(O)C(O)C(O)C(=O)O (stereo not drawn) [Tartaric Acid] |  |  | −0.760 |  |  |
